Several values for one entry are separate records, joined by “and”; a condition that tells them apart may be missing. Equal values may be shown once. Read-outs that look alike come from different tables or passages of the source. No end group written: not given here.
Test system: polymorphonuclear leukocyte adhesion to TNF activated endothelial cells
Type: cell-based, human
Settings: for Average % Change of PMN Adhesion to TNF Activated ECs: average over PMN donors (# donors in parentheses)
Method in brief: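 Human leukocytes were isolated on Ficoll-Hypaque and labelled for 15 min with 111In-oxide or 51Cr. They were added to TNF-activated HUVEC monolayers (≤5th passage, fibronectin-coated, washed with RPMI/1% FCS) for 30 min at 37 °C, 5% CO2. Adherent radioactivity was counted in quadruplicate, with basal binding to non-activated endothelium as control.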

IGWRNVTRLLVFATDDGFHFAGDGKLGAI [Peptide 4-29, NH2 --Ile--Gly--Trp--Arg--Asn--Val--Thr--Arg--Leu--Leu--Val--Phe--Ala--Thr--Asp--Asp--Gly--Phe--His--Phe--Ala--Gly--Asp--Gly--Lys--Leu--Gly--Ala--Ile--COOH]
activity of the peptide after storage for different times at 4° C.: maintained
concentration of peak inhibitory activity in the PMN adhesion assay: 10^-5 to 10^-6 M and 10^-5 M
inhibitory activity in the PMN adhesion assay (in words): significant inhibitory activity
Average % Change of PMN Adhesion to TNF Activated ECs (10^-4 M): -30%
Percent Change in PMN Adhesion to TNF Activated ECs (10^-4 M, donor 108, peptide frozen): -16%
Percent Change in PMN Adhesion to TNF Activated ECs (10^-4 M, donor 272, peptide fresh (second line of donor 272 fresh, last line of table)): +53%
Average % Change of PMN Adhesion to TNF Activated ECs (10^-5 M): -65%
Percent Change in PMN Adhesion to TNF Activated ECs (10^-5 M, donor 108, peptide frozen): -63%
Average % Change of PMN Adhesion to TNF Activated ECs (10^-6 M): -48%
Percent Change in PMN Adhesion to TNF Activated ECs (10^-6 M, donor 100, peptide frozen): -68%
Percent Change in PMN Adhesion to TNF Activated ECs (10^-6 M, donor 272, peptide fresh (second line of donor 272 fresh, last line of table)): -41%
Percent Change in PMN Adhesion to TNF Activated ECs (10^-6 M, donor 475, peptide fresh): -76%
Average % Change of PMN Adhesion to TNF Activated ECs (10^-7 M): +3%
Percent Change in PMN Adhesion to TNF Activated ECs (10^-7 M, donor 121, peptide frozen): +3%
Percent Change in PMN Adhesion to TNF Activated ECs (10^-7 M, donor 155, peptide fresh): +1%
Percent Change in PMN Adhesion to TNF Activated ECs (10^-7 M, donor 272, peptide fresh (second line of donor 272 fresh, last line of table)): +42%
Percent Change in PMN Adhesion to TNF Activated ECs (10^-7 M, donor 323, peptide fresh, or 4° for 2 wks): +45%
Percent Change in PMN Adhesion to TNF Activated ECs (10^-7 M, donor 593, peptide fresh, or 4° for 2 wks): +14%
Average % Change of PMN Adhesion to TNF Activated ECs (10^-8 M): -12%
Percent Change in PMN Adhesion to TNF Activated ECs (10^-8 M, donor 178, peptide fresh): +2%
effect of freezing and thawing the peptide on its activity in the adhesion assay (PMNs from donors 100 and 272): does not significantly effect its activity

Source: patent US5340800A, “Peptide medicaments for the treatment of disease” (priority 1992, dated 1994)
